Measured values reported in ChEMBL document CHEMBL3991601, “The target landscape of clinical kinase drugs” (Science, 2017).
The source made the active and inactive calls.

How the values were obtained:
Glycine--tRNA ligase = biological target: T1, Glycine--tRNA ligase (Homo sapiens, UniProt P41250)
T1 sequence (P41250 whole entry): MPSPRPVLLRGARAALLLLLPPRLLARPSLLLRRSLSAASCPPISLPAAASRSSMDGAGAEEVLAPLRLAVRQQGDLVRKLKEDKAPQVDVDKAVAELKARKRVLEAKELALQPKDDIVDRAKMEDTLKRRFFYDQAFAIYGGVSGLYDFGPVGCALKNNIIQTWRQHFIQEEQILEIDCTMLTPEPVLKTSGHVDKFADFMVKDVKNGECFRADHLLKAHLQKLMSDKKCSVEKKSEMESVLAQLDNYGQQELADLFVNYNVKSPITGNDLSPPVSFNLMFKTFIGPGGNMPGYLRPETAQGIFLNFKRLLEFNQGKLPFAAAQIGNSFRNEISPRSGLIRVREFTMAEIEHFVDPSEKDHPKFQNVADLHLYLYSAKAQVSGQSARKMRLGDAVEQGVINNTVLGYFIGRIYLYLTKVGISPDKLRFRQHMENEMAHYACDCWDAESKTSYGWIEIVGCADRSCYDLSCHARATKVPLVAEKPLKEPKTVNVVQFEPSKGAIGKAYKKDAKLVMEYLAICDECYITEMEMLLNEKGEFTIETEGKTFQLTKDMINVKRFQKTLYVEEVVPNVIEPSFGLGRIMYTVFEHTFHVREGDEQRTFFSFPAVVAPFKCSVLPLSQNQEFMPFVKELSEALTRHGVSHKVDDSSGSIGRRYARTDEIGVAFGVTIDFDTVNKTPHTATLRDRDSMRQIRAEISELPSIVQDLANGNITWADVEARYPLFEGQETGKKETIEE

[1] = biological target: Mitogen-activated protein kinase 9 (Homo sapiens, UniProt P45984)
Mitogen-activated protein kinase 9, sequence (P45984 whole entry): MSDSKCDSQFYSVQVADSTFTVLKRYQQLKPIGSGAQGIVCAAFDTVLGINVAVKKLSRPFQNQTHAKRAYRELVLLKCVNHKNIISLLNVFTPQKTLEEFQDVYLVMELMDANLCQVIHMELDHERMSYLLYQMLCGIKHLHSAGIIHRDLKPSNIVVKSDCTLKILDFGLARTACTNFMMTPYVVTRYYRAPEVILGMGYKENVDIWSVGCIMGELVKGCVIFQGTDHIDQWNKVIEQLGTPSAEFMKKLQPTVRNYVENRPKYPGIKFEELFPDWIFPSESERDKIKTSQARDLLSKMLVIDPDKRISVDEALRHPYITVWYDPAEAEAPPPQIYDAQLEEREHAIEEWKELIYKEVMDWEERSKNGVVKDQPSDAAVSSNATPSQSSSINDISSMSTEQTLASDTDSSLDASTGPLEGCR

[2] = biological target: Tyrosine-protein kinase HCK (Homo sapiens, UniProt P08631)
Tyrosine-protein kinase HCK, sequence (P08631 whole entry): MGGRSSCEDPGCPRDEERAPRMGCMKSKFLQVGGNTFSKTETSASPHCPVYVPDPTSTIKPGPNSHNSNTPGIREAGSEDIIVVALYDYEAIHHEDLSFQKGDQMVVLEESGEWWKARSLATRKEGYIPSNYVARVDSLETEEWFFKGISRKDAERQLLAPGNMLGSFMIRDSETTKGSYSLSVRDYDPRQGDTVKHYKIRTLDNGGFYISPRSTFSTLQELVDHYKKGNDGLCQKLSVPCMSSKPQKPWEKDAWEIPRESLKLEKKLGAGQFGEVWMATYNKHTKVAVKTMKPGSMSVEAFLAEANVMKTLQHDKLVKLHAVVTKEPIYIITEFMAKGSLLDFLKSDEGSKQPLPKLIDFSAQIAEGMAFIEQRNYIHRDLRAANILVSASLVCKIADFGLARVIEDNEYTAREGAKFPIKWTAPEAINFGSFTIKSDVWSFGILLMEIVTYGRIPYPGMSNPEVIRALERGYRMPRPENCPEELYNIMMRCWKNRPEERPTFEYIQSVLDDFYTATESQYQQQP

[3] = biological target: T2, cGMP-dependent protein kinase 1 (Homo sapiens, UniProt Q13976)
T2 sequence (Q13976 whole entry): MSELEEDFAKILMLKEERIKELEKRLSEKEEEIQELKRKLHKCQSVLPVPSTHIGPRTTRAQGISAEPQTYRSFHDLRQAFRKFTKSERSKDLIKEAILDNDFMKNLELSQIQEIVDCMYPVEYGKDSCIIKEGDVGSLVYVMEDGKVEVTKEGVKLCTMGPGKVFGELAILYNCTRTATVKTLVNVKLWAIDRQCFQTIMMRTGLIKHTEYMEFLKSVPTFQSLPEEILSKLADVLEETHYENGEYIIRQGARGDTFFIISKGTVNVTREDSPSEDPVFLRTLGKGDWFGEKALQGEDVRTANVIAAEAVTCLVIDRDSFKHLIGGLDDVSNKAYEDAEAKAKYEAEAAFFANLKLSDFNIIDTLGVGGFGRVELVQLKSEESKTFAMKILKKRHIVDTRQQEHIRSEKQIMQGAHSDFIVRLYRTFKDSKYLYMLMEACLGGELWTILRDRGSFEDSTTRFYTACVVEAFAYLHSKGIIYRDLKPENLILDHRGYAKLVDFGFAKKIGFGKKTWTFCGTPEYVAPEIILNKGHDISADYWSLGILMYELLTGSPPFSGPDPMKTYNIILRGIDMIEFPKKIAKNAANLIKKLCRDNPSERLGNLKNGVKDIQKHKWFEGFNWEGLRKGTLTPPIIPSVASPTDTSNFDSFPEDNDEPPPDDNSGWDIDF

[4] = biological target: T3, Serine/threonine-protein kinase ULK3 (Homo sapiens, UniProt Q6PHR2)
T3 sequence (Q6PHR2 whole entry): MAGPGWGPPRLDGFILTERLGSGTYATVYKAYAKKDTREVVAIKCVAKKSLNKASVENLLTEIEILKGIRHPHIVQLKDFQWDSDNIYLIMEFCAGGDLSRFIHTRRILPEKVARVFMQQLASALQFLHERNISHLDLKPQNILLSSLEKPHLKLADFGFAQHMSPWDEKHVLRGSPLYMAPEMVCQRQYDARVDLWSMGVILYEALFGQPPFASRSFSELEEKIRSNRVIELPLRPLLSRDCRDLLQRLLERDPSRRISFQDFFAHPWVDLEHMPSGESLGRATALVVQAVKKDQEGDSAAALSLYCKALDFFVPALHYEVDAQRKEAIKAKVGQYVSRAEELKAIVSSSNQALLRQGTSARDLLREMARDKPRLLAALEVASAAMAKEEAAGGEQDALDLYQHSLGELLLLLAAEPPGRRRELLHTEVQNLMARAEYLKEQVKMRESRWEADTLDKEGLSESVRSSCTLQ

[5] = biological target: T4, ATP-dependent 6-phosphofructokinase, platelet type (Homo sapiens, UniProt Q01813)
T4 sequence (Q01813 whole entry): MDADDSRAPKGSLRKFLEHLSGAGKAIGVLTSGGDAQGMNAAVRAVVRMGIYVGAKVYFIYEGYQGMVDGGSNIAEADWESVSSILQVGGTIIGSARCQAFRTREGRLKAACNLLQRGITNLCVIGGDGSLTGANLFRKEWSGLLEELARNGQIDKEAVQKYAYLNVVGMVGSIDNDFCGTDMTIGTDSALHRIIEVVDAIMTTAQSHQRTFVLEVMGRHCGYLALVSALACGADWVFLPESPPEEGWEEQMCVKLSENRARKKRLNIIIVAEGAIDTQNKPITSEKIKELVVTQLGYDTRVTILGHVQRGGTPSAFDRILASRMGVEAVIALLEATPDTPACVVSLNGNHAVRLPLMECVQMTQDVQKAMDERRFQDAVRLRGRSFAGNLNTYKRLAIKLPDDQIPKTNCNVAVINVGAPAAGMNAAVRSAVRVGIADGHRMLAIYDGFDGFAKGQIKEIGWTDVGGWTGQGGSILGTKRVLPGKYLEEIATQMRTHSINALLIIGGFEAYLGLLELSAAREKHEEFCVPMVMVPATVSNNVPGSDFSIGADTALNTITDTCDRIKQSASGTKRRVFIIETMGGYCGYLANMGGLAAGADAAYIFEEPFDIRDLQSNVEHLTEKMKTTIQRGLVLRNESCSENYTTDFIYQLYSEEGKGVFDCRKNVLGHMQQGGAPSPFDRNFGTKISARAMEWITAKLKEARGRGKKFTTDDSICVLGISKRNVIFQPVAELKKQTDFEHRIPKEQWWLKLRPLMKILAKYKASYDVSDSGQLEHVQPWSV
Further: in the data inactive means no Kd found up to 30 µM.

Row | SMILES | Kd (Glycine--tRNA ligase) | Kd [1] | Kd [2] | Kd [3] | Kd [4] | Kd [5]
1 | C[C@@H](Oc1cc(C(=O)Nc2ccc(C(=O)N3CCN(C)CC3)cc2)nnc1N)c1c(Cl)ccc(F)c1Cl | > 30 µM (inactive) | > 30 µM (inactive) | > 30 µM (inactive) | > 30 µM (inactive) | > 30 µM (inactive) | 
2 | CC(=O)c1cnc2ccc(-c3cc(Cl)c(O)c(Cl)c3)nc2c1N[C@H]1CC[C@H](CN(C)C)CC1 | > 30 µM (inactive) | 0.364 µM (active) | 0.116 µM (active) | > 30 µM (inactive) |  | > 30 µM (inactive)
3 | CCNC(=O)C#Cc1ccc2c(c1)NC(=O)/C2=C(\Nc1ccc(CN(C)C)cc1)c1ccccc1 | > 30 µM (inactive) | > 30 µM (inactive) | 0.9 µM (active) | > 30 µM (inactive) | 0.612 µM (active) | > 30 µM (inactive)
4 | C=CC(=O)N1CCC[C@H](n2c(=O)n(-c3ccc(Oc4ccccc4)cc3)c3c(N)ncnc32)C1 | > 30 µM (inactive) | > 30 µM (inactive) | 0.006 µM | > 30 µM (inactive) | > 30 µM (inactive) | > 30 µM (inactive)
5 | Cc1nc2cc(-c3nn(C(C)C)c4ncnc(N)c34)ccc2o1 | > 30 µM (inactive) | > 30 µM (inactive) | > 30 µM (inactive) | > 30 µM (inactive) | > 30 µM (inactive) | > 30 µM (inactive)
6 | COCc1c(-c2ccc(NC(=O)Nc3cc(C(F)(F)F)ccc3F)c(F)c2)c2c(N)ncnn2c1CN1CCOCC1 | > 30 µM (inactive) | 1.51 µM (active) | > 30 µM (inactive) | > 30 µM (inactive) | > 30 µM (inactive) | > 30 µM (inactive)
7 | COc1cc(Nc2ncc3c(n2)-c2ccc(Cl)cc2C(c2c(F)cccc2OC)=NC3)ccc1C(=O)O [ALISERTIB] | > 30 µM (inactive) |  |  |  |  | > 30 µM (inactive)
8 | O=C(Nc1c[nH]nc1-c1nc2cc(CN3CCOCC3)ccc2[nH]1)NC1CC1 [AT-9283] | > 30 µM (inactive) | 0.509 µM (active) | 0.664 µM (active) | > 30 µM (inactive) |  | > 30 µM (inactive)
9 | CNC(=O)c1ccccc1Sc1ccc2c(/C=C/c3ccccn3)n[nH]c2c1 [AXITINIB] | > 30 µM (inactive) |  |  |  |  | > 30 µM (inactive)
10 | CC(C)(C)c1nc(-c2cccc(NS(=O)(=O)c3c(F)cccc3F)c2F)c(-c2ccnc(N)n2)s1 [DABRAFENIB] | > 30 µM (inactive) |  | 1.65 µM | > 30 µM (inactive) | 1.48 µM | > 30 µM (inactive)
11 | Cn1cc(C2=C(c3cn(C4CCN(Cc5ccccn5)CC4)c4ccccc34)C(=O)NC2=O)c2ccccc21 [ENZASTAURIN] | > 30 µM (inactive) |  |  |  |  | > 30 µM (inactive)
12 | O=C(Nc1cc(C(F)(F)F)cc(C(F)(F)F)c1)c1cc(Cl)ccc1O [IMD-0354] | > 30 µM (inactive) | > 30 µM (inactive) | > 30 µM (inactive) | > 30 µM (inactive) | > 30 µM (inactive) | 
13 | Cc1[nH]c(/C=C2\C(=O)Nc3ccccc32)c(C)c1CCC(=O)O [ORANTINIB] | > 30 µM (inactive) |  |  |  | 1.46 µM (active) | > 30 µM (inactive)
14 | CNC(=O)c1cc(Oc2ccc(NC(=O)Nc3cc(C(C)(C)C)nn3-c3ccc4ncccc4c3)c(F)c2)ccn1 [REBASTINIB] | > 30 µM (inactive) | 0.98 µM (active) |  | > 30 µM (inactive) | > 30 µM (inactive) | > 30 µM (inactive)
15 | CO[C@H]1C[C@@H]2CC[C@@H](C)[C@@](O)(O2)C(=O)C(=O)N2CCCC[C@H]2C(=O)O[C@H]([C@H](C)C[C@@H]2CC[C@@H](OP(C)(C)=O)[C@H](OC)C2)CC(=O)[C@H](C)/C=C(\C)[C@@H](O)[C@@H](OC)C(=O)[C@H](C)C[C@H](C)/C=C/C=C/C=C/1C [RIDAFOROLIMUS] | > 30 µM (inactive) | > 30 µM (inactive) | > 30 µM (inactive) | > 30 µM (inactive) | > 30 µM (inactive) | 
16 | N#CC[C@H](C1CCCC1)n1cc(-c2ncnc3[nH]ccc23)cn1 [RUXOLITINIB] | > 30 µM (inactive) |  |  |  |  | > 30 µM (inactive)

Now from value to molecule:

Row | Kd (Glycine--tRNA ligase) | Kd [1] | Kd [2] | Kd [3] | Kd [4] | Kd [5] | SMILES
17 | > 30 µM (inactive) | > 30 µM (inactive) | > 30 µM (inactive) | > 30 µM (inactive) | > 30 µM (inactive) |  | C#Cc1cccc(Nc2ncnc3cc(OC)c(OCCCCCCC(=O)NO)cc23)c1 [CUDC-101]
18 | > 30 µM (inactive) |  |  |  |  | > 30 µM (inactive) | C[C@@H](Oc1cc(-n2cnc3ccc(CN4CCN(C)CC4)cc32)sc1C(N)=O)c1ccccc1C(F)(F)F [GSK-461364]
19 | > 30 µM (inactive) |  | > 30 µM (inactive) | > 30 µM (inactive) | > 30 µM (inactive) | > 30 µM (inactive) | CCn1cc(-c2ccnc3[nH]c(-c4cccc(CN(C)C)c4)cc23)c(-c2ccc(NC(=O)N(C)C)cc2)n1 [GSK-1070916]
20 | > 30 µM (inactive) | > 30 µM (inactive) | > 30 µM (inactive) | > 30 µM (inactive) | > 30 µM (inactive) |  | Cn1cc(-c2cnc3ccc4ccc(CS(=O)(=O)NCc5ccccn5)cc4c(=O)c3c2)cn1 [MK-8033]
21 | > 30 µM (inactive) |  | > 30 µM (inactive) |  | > 30 µM (inactive) | > 30 µM (inactive) | NC(=O)c1c(OCc2c(F)cc(Br)cc2F)nsc1NC(=O)NCCCCN1CCCC1 [OSI-632]
22 | > 30 µM (inactive) |  | > 30 µM (inactive) |  | 0.019 µM (active) | > 30 µM (inactive) | CC(=O)NCC(=O)N1[C@@H]2CC[C@H]1c1ccc(Nc3ncc(C(F)(F)F)c(NC4CCC4)n3)cc12 [PF-03814735]
23 | > 30 µM (inactive) |  |  |  |  | > 30 µM (inactive) | O=C(NOCCO)c1cc(CN2OCCCC2=O)c(F)c(F)c1Nc1ccc(I)cc1F [RO-4987655]
24 | > 30 µM (inactive) | > 30 µM (inactive) | > 30 µM (inactive) | > 30 µM (inactive) | > 30 µM (inactive) |  | Cn1cc(-c2cnn3c(N)c(Br)c([C@@H]4CCCNC4)nc23)cn1 [SCH-900776]
